# Assay results taken from US8314117B2, “CGRP receptor antagonists” (Bristol-Myers Squibb Company, priority 2009, dated 2012).
# Target: T1, Human CGRP Receptor (Homo sapiens, UniProt O60894+Q16602)
# T1 construct: Crude membranes were prepared from SK-N-MC cells expressing CGRP receptors; endogenous in cells; host or cells: SK-N-MC cells (crude membranes)
# Test: Radioligand binding assay, [125I]-CGRP displacement from SK-N-MC cell membranes
# Conditions: SK-N-MC membranes (7 μg/well); [125I]-CGRP final 18 pM; room temperature 2 h; at least two separate experiments
# Protocol: Tissue Culture. SK-N-MC cells were grown at 37° C. in 5% CO2 as a monolayer in medium consisting of MEM with Earle's salts and L-glutamine (Invitrogen) supplemented with 10% fetal bovine serum (Invitrogen). Membrane Preparation. Crude membranes were prepared from SK-N-MC cells expressing CGRP receptors. The cells were rinsed twice with phosphate-buffered saline (155 mM NaCl, 3.3 mM Na2HPO4, 1.1 mM […]4, pH 7.4), and incubated for 5-10 min. at 4° C. in hypotonic lysis buffer consisting of 10 mM Tris (pH 7.4) and 5 mM EDTA. […] Homogenates were centrifuged at 32,000×g for 30 min. The pellets were resuspended in cold hypotonic lysis buffer with 0.1% mammalian protease inhibitor cocktail (Sigma) and assayed for protein concentration. The SK-N-MC homogenate was aliquoted and stored at -80° C. Radioligand Binding Assay. The compounds of invention were solubilized and carried through serial dilutions using 100% DMSO. […] [^125I]-CGRP (GE Healthcare or Perkin-Elmer) was diluted to […] in assay buffer and a volume of 50 μl was added to each well. SK-N-MC membranes were thawed, diluted in assay buffer with fresh 0.1% mammalian protease inhibitor cocktail (Sigma), and re-homogenized. SK-N-MC homogenate (7 μg/well) was added in a volume of 100 μl. The assay plates were then incubated at room temperature for 2 h. […] Protein bound radioactivity was determined using a gamma or scintillation counter. […] Final assay concentration of [^125I]-CGRP was 18 pM. […] All compounds of invention were evaluated in at least two separate experiments.
# T1 sequence (Q16602 23-461): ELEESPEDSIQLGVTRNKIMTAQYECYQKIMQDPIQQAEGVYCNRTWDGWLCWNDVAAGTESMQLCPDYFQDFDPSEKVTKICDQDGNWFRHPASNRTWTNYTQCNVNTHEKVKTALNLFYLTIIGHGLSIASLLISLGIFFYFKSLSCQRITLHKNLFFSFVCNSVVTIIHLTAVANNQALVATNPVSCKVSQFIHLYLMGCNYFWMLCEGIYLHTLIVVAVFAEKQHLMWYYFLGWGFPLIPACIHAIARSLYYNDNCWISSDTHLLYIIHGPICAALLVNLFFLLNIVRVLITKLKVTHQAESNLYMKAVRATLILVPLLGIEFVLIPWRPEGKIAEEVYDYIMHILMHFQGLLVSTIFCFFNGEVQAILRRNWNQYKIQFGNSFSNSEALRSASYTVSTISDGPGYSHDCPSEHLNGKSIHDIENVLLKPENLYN
# T1 sequence (O60894 27-148): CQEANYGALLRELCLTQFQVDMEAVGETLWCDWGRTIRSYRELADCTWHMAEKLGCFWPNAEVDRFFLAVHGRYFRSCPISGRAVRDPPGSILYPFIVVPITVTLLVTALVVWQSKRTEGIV
row,IC50 [nM],Compound
1,0.19,"CN[C@@H]1c2cccnc2[C@H](OC(=O)N2CCC(n3c(=O)[nH]c4ncccc43)CC2)CC[C@H]1c1cccc(F)c1F [Example 13, (5S,6S,9R)-6-(2,3-difluorophenyl)-5-(methylamino)-6,7,8,9-tetrahydro-5H-cyclohepta[b]pyridin-9-yl 4-(2-oxo-2,3-dihydro-1H-imidazo[4,5-b]pyridin-1-yl)piperidine-1-carboxylate]"
2,8.6,"O=C(O[C@@H]1CC[C@H](c2cccc(F)c2F)[C@H](O)c2cccnc21)N1CCC(n2c(=O)[nH]c3ncccc32)CC1 [Example 6, (5S,6R,9R)-6-(2,3-difluorophenyl)-5-hydroxy-6,7,8,9-tetrahydro-5H-cyclohepta[b]pyridin-9-yl 4-(2-oxo-2,3-dihydro-1H-imidazo[4,5-b]pyridin-1-yl)piperidine-1-carboxylate]"
3,500,"O=C(O[C@@H]1CC[C@@](O)(c2cccc(F)c2F)[C@@H](O)c2cccnc21)N1CCC(n2c(=O)[nH]c3ncccc32)CC1 (single isomer, unassigned) [Example 3]"
4,2,"CN(C)[C@@H]1c2cccnc2[C@H](OC(=O)N2CCC(n3c(=O)[nH]c4ncccc43)CC2)CC[C@H]1c1cccc(F)c1F [Example 14, (5S,6S,9R)-6-(2,3-difluorophenyl)-5-(dimethylamino)-6,7,8,9-tetrahydro-5H-cyclohepta[b]pyridin-9-yl 4-(2-oxo-2,3-dihydro-1H-imidazo[4,5-b]pyridin-1-yl)piperidine-1-carboxylate]"
5,40,"O=C(O[C@@H]1CC[C@@H](c2cccc(F)c2F)/C(=N\O)c2cccnc21)N1CCC(n2c(=O)[nH]c3ncccc32)CC1 [Example 16, (6S,9R,E)-6-(2,3-difluorophenyl)-5-(hydroxyimino)-6,7,8,9-tetrahydro-5H-cyclohepta[b]pyridin-9-yl 4-(2-oxo-2,3-dihydro-1H-imidazo[4,5-b]pyridin-1-yl)piperidine-1-carboxylate]"
6,> 1000,"N[C@@H]1c2cccnc2[C@@H](CC(=O)N2CCC(n3c(=O)[nH]c4ncccc43)CC2)CC[C@H]1c1cccc(F)c1F [Example 21, 1-(1-(2-((5S,6S,9R)-5-amino-6-(2,3-difluorophenyl)-6,7,8,9-tetrahydro-5H-cyclohepta[b]pyridin-9-yl)acetyl)piperidin-4-yl)-1H-imidazo[4,5-b]pyridin-2(3H)-one]"
7,28,"O=C1c2cccnc2[C@H](OC(=O)N2CCC(n3c(=O)[nH]c4ncccc43)CC2)CCC1c1cccc(F)c1F (mixture of isomers) [Example 2, (9R)-6-(2,3-difluorophenyl)-5-oxo-6,7,8,9-tetrahydro-5H-cyclohepta[b]pyridin-9-yl 4-(2-oxo-2,3-dihydro-1H-imidazo[4,5-b]pyridin-1-yl)piperidine-1-carboxylate]"
8,0.8,N[C@@H]1c2cccnc2[C@H](NC(=O)N2CCC(n3c(=O)[nH]c4ncccc43)CC2)CC[C@H]1c1cccc(F)c1F [Example 18]
9,28,"O=C(O[C@@H]1CC[C@@H](c2cccc(F)c2F)/C(=N/O)c2cccnc21)N1CCC(n2c(=O)[nH]c3ncccc32)CC1 [Example 15, (6S,9R,Z)-6-(2,3-difluorophenyl)-5-(hydroxyimino)-6,7,8,9-tetrahydro-5H-cyclohepta[b]pyridin-9-yl 4-(2-oxo-2,3-dihydro-1H-imidazo[4,5-b]pyridin-1-yl)piperidine-1-carboxylate]"
10,0.89,"O=C(O[C@@H]1CC[C@@H](c2cc(F)cc(F)c2)[C@H](O)c2cccnc21)N1CCC(n2c(=O)[nH]c3ncccc32)CC1 [Example 11, (5S,6S,9R)-6-(3,5-difluorophenyl)-5-hydroxy-6,7,8,9-tetrahydro-5H-cyclohepta[b]pyridin-9-yl 4-(2-oxo-2,3-dihydro-1H-imidazo[4,5-b]pyridin-1-yl)piperidine-1-carboxylate]"
11,1.2,"N[C@@H]1c2cccnc2[C@H](OC(=O)Nc2ccc3c(c2)CC2(C3)C(=O)Nc3ncccc32)CC[C@H]1c1cccc(F)c1F (stereo partly drawn) [Example 17, (5S,6S,9R)-5-amino-6-(2,3-difluorophenyl)-6,7,8,9-tetrahydro-5H-cyclohepta[b]pyridin-9-yl 2′-oxo-1,1′,2′,3-tetrahydrospiro[indene-2,3′-pyrrolo[2,3-b]pyridine]-5-ylcarbamate]"
12,0.2,"N[C@@H]1c2cccnc2[C@H](OC(=O)N2CCC(n3c(=O)[nH]c4ncccc43)CC2)CC[C@H]1c1cc(F)cc(F)c1 [Example 10, (5S,6S,9R)-5-amino-6-(3,5-difluorophenyl)-6,7,8,9-tetrahydro-5H-cyclohepta[b]pyridin-9-yl 4-(2-oxo-2,3-dihydro-1H-imidazo[4,5-b]pyridin-1-yl)piperidine-1-carboxylate]"
13,0.13,"[N-]=[N+]=N[C@@H]1c2cccnc2[C@H](OC(=O)N2CCC(n3c(=O)[nH]c4ncccc43)CC2)CC[C@H]1c1cccc(F)c1F [Example 7, (5S,6S,9R)-5-azido-6-(2,3-difluorophenyl)-6,7,8,9-tetrahydro-5H-cyclohepta[b]pyridin-9-yl 4-(2-oxo-2,3-dihydro-1H-imidazo[4,5-b]pyridin-1-yl)piperidine-1-carboxylate]"
14,0.16,"O=C(O[C@@H]1CC[C@@H](c2cccc(F)c2F)[C@H](O)c2cccnc21)N1CCC(n2c(=O)[nH]c3ncccc32)CC1 [Example 4, (5S,6S,9R)-6-(2,3-difluorophenyl)-5-hydroxy-6,7,8,9-tetrahydro-5H-cyclohepta[b]pyridin-9-yl 4-(2-oxo-2,3-dihydro-1H-imidazo[4,5-b]pyridin-1-yl)piperidine-1-carboxylate]"
15,12,"O=C(O[C@H]1c2ncccc2C[C@H](c2cccc(F)c2F)C[C@H]1O)N1CCC(n2c(=O)[nH]c3ncccc32)CC1 [Example 12, (6S,8R,9S)-6-(2,3-difluorophenyl)-8-hydroxy-6,7,8,9-tetrahydro-5H-cyclohepta[b]pyridin-9-yl 4-(2-oxo-2,3-dihydro-1H-imidazo[4,5-b]pyridin-1-yl)piperidine-1-carboxylate]"
16,1.3,"O=C(O[C@@H]1CCC(c2cccc(F)c2F)C(O)c2cccnc21)N1CCC(n2c(=O)[nH]c3ncccc32)CC1 (single isomer, unassigned) [Example 5]"
17,410,"O=C(O[C@@H]1CC[C@@](O)(c2cccc(F)c2F)C(=O)c2cccnc21)N1CCC(n2c(=O)[nH]c3ncccc32)CC1 (single isomer, unassigned) [Example 1]"

row,Compound,IC50 [nM]
1,"N[C@@H]1c2cccnc2[C@H](OC(=O)N2CCC(n3c(=O)[nH]c4ncccc43)CC2)CC[C@H]1c1cccc(F)c1F [Example 8, (5S,6S,9R)-5-amino-6-(2,3-difluorophenyl)-6,7,8,9-tetrahydro-5H-cyclohepta[b]pyridin-9-yl 4-(2-oxo-2,3-dihydro-1H-imidazo[4,5-b]pyridin-1-yl)piperidine-1-carboxylate]",0.04
